Experimental data as given in ChEMBL document CHEMBL1159215, “Isolation of antifungal and larvicidal constituents of Diplolophium buchanani by centrifugal partition chromatography” (1995).
Activity calls are given as the source filed them. The calls are words filed in the database; no cut-off is given here.

Columns and labels:
[1] = test system: Aedes aegypti; assay: Larvicidal activity against Aedes aegypti larvae after 24 hrs […]; assay type: functional
[2] = test system: Cladosporium cucumerinum; assay: Antifungal activity against Cladosporium cucumerinum assessed as inhibition of spore growth by TLC bioassay; assay type: functional
[3] = test system: Aedes aegypti; assay: Larvicidal activity against Aedes aegypti larvae at 400 ppm after 24 hrs […]; assay type: functional, organism-based

Compound: C/C=C\c1cc(OC)c(OC)cc1OC [CIS-ASARONE]
- LD100 [1]: 16 ppm

Compound: Clc1ccc(COC(Cn2ccnc2)c2ccc(Cl)cc2Cl)c(Cl)c1 (configuration not stated) [MICONAZOLE]
- Activity [2]: 1 µg

Compound: CC(C)(O)[C@H](O)COc1c2ccoc2cc2oc(=O)ccc12 [OXYPEUCEDANIN HYDRATE]
- Activity [2]: 10 µg
- Activity [1]: inactive
- Activity [3]: inactive

Compound: CC1(C)O[C@H]1COc1c2ccoc2cc2oc(=O)ccc12 [OXYPEUCEDANIN]
- Activity [2]: 1 µg
- LD100 [1]: 25 ppm
